Assays:
[1] = target: T1, 5-HT2C receptor (Homo sapiens, UniProt P28335); experiment: Ca2+ mobilization assay (Fluo-4, FLIPR), HEK 293T cells stably transfected with 5-HT2C; type: cell-based
T1 construct: expressed in transfected cells; host or cells: HEK 293T, stably transfected
T1 sequence (P28335 33-458): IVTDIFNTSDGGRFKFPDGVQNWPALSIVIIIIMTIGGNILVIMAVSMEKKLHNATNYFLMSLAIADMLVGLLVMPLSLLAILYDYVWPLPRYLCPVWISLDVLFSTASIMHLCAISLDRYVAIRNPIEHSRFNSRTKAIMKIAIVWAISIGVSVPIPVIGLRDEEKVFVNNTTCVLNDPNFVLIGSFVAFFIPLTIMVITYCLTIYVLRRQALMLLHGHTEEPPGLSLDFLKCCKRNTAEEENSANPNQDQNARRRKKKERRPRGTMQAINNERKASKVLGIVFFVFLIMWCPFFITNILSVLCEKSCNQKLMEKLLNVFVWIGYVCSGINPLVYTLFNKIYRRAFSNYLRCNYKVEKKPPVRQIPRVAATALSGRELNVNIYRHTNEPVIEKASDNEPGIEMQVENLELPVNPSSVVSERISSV
Text: The 5-HT2C receptor mainly couples to Gαq proteins. The activated 5-HT2C receptor transmits the signals from the extracellular to the intercellular side using DAG/IP3 (diacyl glycerol/inositol 1,4,5-trisphosphate) as its second massagers (Hannon and Hoyer [2008]). IP3 stimulates the endoplasmic reticulum to release calcium ions into the cytoplasm, which causes the increase of calcium concentration in cytosol. Therefore, calcium mobilization assay is commonly applied to understand how unknown small molecule ligands of 5-HT2C receptor modulate cellular signal transductions. In this case, Fluo-4 Direct dye was used as a fluorescence indicator to detect calcium flux in G protein-coupled receptor expressed cells. The fold of maximum response over average of basal reading is plotted against compound concentration to determine the potency of the compounds (Fig. 3). […]. HEK 293T cells stably transfected with 5-HT2A/2B/2C receptor were seeded in 384-well plates at a density of 15,000 cells/well in DMEM containing 1% dialyzed FBS 8 h before the calcium flux assay. After removing medium, cells were then incubated (20 μl/well) for 1 h at 37 °C with Fluo-4 Direct dye (Invitrogen) reconstituted in FLIPR buffer (1× HBSS, 2.5 mmol/L probenecid, and 20 mmol/L HEPES, pH 7.4). After the dye loaded, cells were placed in a FLIPR^TETRA fluorescence imaging plate reader (Molecular Devices); drug dilutions, prepared at 3× final concentration in FLIPR buffer and aliquotted into 384-well plates, were also added to the FLIPR^TETRA. The fluidics module and plate reader of the FLIPR^TETRA were programmed to read baseline fluorescence for 10 s (1 read/s), then to add 10 μl of drug/well and to read for 6 min (1 read/s). Fluorescence in each well was normalized to the average of the first 10 reads (i.e., baseline fluorescence). Then, the maximum-fold increase, which occurred within 60 s after drug addition, over baseline fluorescence elicited by vehicle or drug was determined. […]

[2] = target: T2, 5-HT2C receptor G218^5.42A (Homo sapiens, UniProt P28335, DEL255-298/G218A/G251D/H250E/H252N/INS299[…]/L248D/M247A/M300L/T253W); experiment: Affinity MS assay, 5-HT2C mutant G218A; type: binding
T2 construct: the N- and C-terminals were truncated by 39 and 65 residues, respectively; PreScission protease site + 10× His (C); made in house
T2 sequence (P28335 with tags, fused parts or gaps with the stated changes): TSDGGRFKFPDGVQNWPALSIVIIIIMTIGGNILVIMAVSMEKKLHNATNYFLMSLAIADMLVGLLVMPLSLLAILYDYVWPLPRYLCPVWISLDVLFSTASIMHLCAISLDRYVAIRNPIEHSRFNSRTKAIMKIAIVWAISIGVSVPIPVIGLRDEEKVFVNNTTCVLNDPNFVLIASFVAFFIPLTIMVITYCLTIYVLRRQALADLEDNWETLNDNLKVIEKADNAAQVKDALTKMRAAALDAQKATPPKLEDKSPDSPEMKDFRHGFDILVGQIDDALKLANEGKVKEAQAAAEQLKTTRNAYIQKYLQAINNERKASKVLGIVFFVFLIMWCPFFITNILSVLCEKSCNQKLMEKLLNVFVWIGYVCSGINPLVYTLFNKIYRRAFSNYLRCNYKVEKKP
Text: Based on the binding poses predicted by molecular docking, single-point mutations were designed to test their impact on ligand binding. Mutations of several residues include the highly conserved Asp134^3.32, which is known to cause 5-HT1B or 5-HT2B receptors to abolish the monoamine ligand binding as reported in the literature (Wang et al. [2013]). In this study, residues forming hydrophobic interactions with the substitution groups on the aporphine scaffold of (–)-crebanine (1) were selected for mutation as well and they are Thr139^3.37, Gly218^5.42, Ala222^5.46, and Leu209^ECL2. Effects of those mutations were tested with the CPM assay and the affinity MS assay (Table 2). In the affinity MS experiment, relative ligand-binding capacity (represented by binding %) to different mutants and the wild-type receptor was compared. Among the six mutations tested, five of them reduced the binding of (–)-crebanine (1) by more than 40% relative to binding to the wild-type receptor, displaying the importance of hydrophobic interactions. […]
Four experimental replicates were prepared for each pair of the test ligand and the negative control. […] S/C ratios refer to the ratio of MS response of a specific ligand detected in the 5-HT2C incubation sample versus the control. […]

SMILES: COc1ccc2c(c1OC)C[C@@H]1c3c(cc4c(c3-2)OCO4)CCN1C [Compound 1, (–)-crebanine]
- IC50 [1]: 149 nM
- (–)-Crebanine/MS relative ligand binding ([2]; mutant G218^5.42A, n = 2): 9.82%
- ligand-binding capacity reduction versus wild-type ([2]; mutation Gly218^5.42Ala): over 60%

Reference: publication PMC5860131, “Identification of natural products as novel ligands for the human 5-HT2C receptor” (Biophysics Reports, 2018)
